Drawing on PubChem BioAssay (NCI), this text covers GI50 and TGI for 21 molecules.

Test in all cases: DTP human tumour cell line panel, 48 h
Assay [1] has as its system SNB-75 CNS.
The subject of assay [2] is M14 melanoma.
Assay [3] concerns A549 NSCLC.
Assay [4] concerns LOX IMVI melanoma.
For assay [5], the system named is HCC-2998 colon.
In assay [6] the test system is HL-60(TB) leukemia.
Assay [7] deals with UACC-62 melanoma.
In assay [8] the test system is K-562 leukemia.
The test system of assay [9] is OVCAR-3 ovarian.
Assay [10] deals with 786-0 renal.

Values joined by “and” are separate entries in the source; they are usually repeats but may differ in a detail not shown here. Equal entries are not always repeated.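 Growth conditions: 96-well plates. Treatment: test compound, 48 hours, 5 concentrations. Analysis: linear interpolation between bracketing concentrations; unreached endpoints set to highest concentration. GI50 marks 50% less growth. TGI marks complete inhibition of growth.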

What is called GI50 is the concentration that inhibits growth by half. Broadly, the TGI is the concentration at which net growth stops. Take `CCOP(=O)(CCP(=O)(OCC)OCC)OCC.C[CH2][Sn]([Cl])([Cl])[CH2]C`: the GI50 was 26.4 µM in assay [1]; 41.4 µM in assay [2]; over 100 µM in assay [3]; 22 µM in assay [4]; over 69.4 µM in assay [5]; 56.6 µM in assay [6]. The GI50 in assay [7] is 34 µM; in [8] it was 27.4 µM; in [9], over 84.3 µM; in assay [10] it was 21.7 µM. The TGI in assay [1] was 69.3 µM; in [2], over 57.8 µM; in assay [3], over 100 µM; in assay [4] it was 47.9 µM; in assay [5], over 100 µM; in assay [6], over 95.2 µM. The concentration for total growth inhibition (TGI) in [7] is 55 µM; in [8] it was over 100 µM; in assay [9], over 100 µM; in assay [10] it was 50.2 µM.

For `Nc1ccc2c(c1)C(=O)c1ccc(F)cc1-2`, the total growth inhibition concentration (TGI) in [1], in assay [2], in assay [3], in assay [4], in assay [5] and in [6] was over 100 µM each time. The concentration for total growth inhibition (TGI) in assay [7], in assay [8], in assay [9] and in assay [10] was over 100 µM in each case.

For `COC1=C(OC)C(=O)C(/C=C(\C)C(=O)O)=C(C)C1=O`, the GI50 in assay [1] was 49.1 µM; in assay [2], over 100 µM; in [3], over 100 µM; in assay [4], over 100 µM; in assay [5], over 100 µM; in assay [6] it was over 100 µM. The GI50 in [7], in assay [8], in [9] and in assay [10] was over 100 µM in each case. For the same molecule, the total growth inhibition concentration (TGI) in [1], in assay [2], in assay [3], in assay [4], in [5] and in assay [6] was over 100 µM each time. Also, the TGI in [7], in assay [8], in assay [9] and in [10] was over 100 µM each time.

Consider `CCCc1cc(=O)oc2c(C(=O)CC(C)C)c(O)c(CC=C(C)C)c(O)c12`, for which the GI50 is 10.7 µM in [1]; 10.3 µM in assay [2]; 11.4 µM in assay [3]; 12.9 µM in [4]; 4.87 µM in [5]; 7.01 µM in assay [6]. In addition, the GI50 in [7] was 1.88 µM; in assay [8] it was 4.13 µM; in assay [9], 3.53 µM; in assay [10] it was 10.5 µM. The concentration for total growth inhibition (TGI) in [1] was 41.8 µM; in assay [2] it was over 50 µM; in assay [3], over 50 µM; in [4] it was over 50 µM; in [5] it was over 50 µM; in assay [6], 22.9 µM. Further, the concentration for total growth inhibition (TGI) in assay [7] is 12.1 µM; in assay [8], over 50 µM; in [9], over 50 µM; in [10], 46.2 µM.

For the molecule `O=C(CCc1nnc2s/c(=C\c3ccccc3)c(=O)n12)Nc1cc(Cl)ccc1Cl`, the TGI in [1], in [2], in assay [3], in assay [4], in assay [5] and in assay [6] was over 100 µM each time. Also, the TGI in assay [7], in assay [8], in assay [9] and in assay [10] was over 100 µM throughout.

On to `CCCCCCCCCCCCCCCCOC(=O)C(C(=O)OCCCCCCCCCCCCCCCC)[N+](C)(C)CCOC(C)=O`, for which the total growth inhibition concentration (TGI) in assay [1] came out at 35.6 µM; in assay [2], 38.5 µM; in assay [3], 42.6 µM; in assay [4] it was 44.8 µM; in assay [5] it was 30.7 µM; in assay [6], 6.12 µM. Also, the total growth inhibition concentration (TGI) in assay [7] was 45.7 µM; in [8], 41 µM; in assay [9], 32.6 µM; in assay [10], 32.7 µM.

Turning to `C=CCN1C(=O)/C(=c2\sc3n(c2=O)C2C(NN=3)N(CC)C(=O)N2CC)c2ccccc21` (stereo not given), the GI50 is 0.254 µM in assay [1]; 0.446 µM in [2]; 1.21 µM in assay [3]; 0.698 µM in [4]; 1.28 µM in assay [5]; 0.315 µM in [6]. Also, the GI50 is 0.612 µM in assay [7], 0.414 µM in assay [8], 0.377 µM in [9] and 0.708 µM in assay [10]. Besides, the TGI in assay [1] was 2.98 µM; in assay [2] it was over 100 µM; in assay [3], over 100 µM; in [4] it was over 100 µM; in assay [5], over 100 µM; in [6], 2.05 µM. Moreover, the TGI in assay [7] is over 62.1 µM; in [8], over 100 µM; in assay [9], 2.35 µM; in [10], 14.9 µM.

In the case of `C/C(CN1C(=O)c2ccccc2C1=O)=N\NS(=O)(=O)c1ccccc1`, the TGI in [1], in assay [2], in assay [3], in [4], in assay [5] and in assay [6] was over 100 µM in each case. The TGI in assay [7], in assay [8], in assay [9] and in assay [10] was over 100 µM in each case.

On to `Oc1nc(NCCc2ccccc2)sc1/C=C1\C=Nc2ncccc21`, for which the GI50 in assay [1] is 1.81 µM and 1.8 µM; in assay [2], 3.72 µM and 3.49 µM; in [3], 3.18 µM and 3.67 µM; in assay [4], 2.36 µM and 2.61 µM; in assay [5], 3.6 µM and 6.06 µM; in assay [6] it was 2.34 µM and 2.14 µM. For the same molecule, the GI50 is 2.38 µM and 2.93 µM in assay [7]; 4.12 µM and 4.7 µM in assay [8]; 2.16 µM and 2.06 µM in assay [9]; 3.03 µM and 3.02 µM in assay [10]. Further, the TGI is 4.11 µM and 4.29 µM in assay [1]; 12.5 µM and 10.4 µM in [2]; 12.5 µM and 14.6 µM in [3]; 10.6 µM and 9.37 µM in assay [4]; 13.2 µM and 24.3 µM in assay [5]; 6.48 µM and 6.88 µM in assay [6]. The concentration for total growth inhibition (TGI) in assay [7] was 8.56 µM and 8.7 µM; in assay [8] it was 20 µM and 79.6 µM; in [9], 9.39 µM and 7.33 µM; in assay [10] it was 11.2 µM and 9.85 µM.

Turning to `CN(C)CC(C(=O)c1ccccc1)c1ccccc1` (stereo not given), the GI50 in [1] was 3.54 µM; in assay [2], 1.46 µM; in assay [3] it was 6.76 µM; in [4], 0.765 µM; in [5], 4.86 µM; in assay [6] it was 3.17 µM. For the same molecule, the GI50 in assay [7] is 2.05 µM; in assay [8], 0.483 µM; in assay [9] it was 1.24 µM; in assay [10], 3.58 µM. Moreover, the TGI came out at 14.4 µM in [1]; 2.92 µM in [2]; 20.6 µM in [3]; 2.33 µM in assay [4]; 16.4 µM in assay [5]; 8.22 µM in [6]. Besides, the total growth inhibition concentration (TGI) in assay [7] was determined as 7 µM; in assay [8], 10.1 µM; in assay [9], 2.5 µM; in [10], 10.4 µM.

For the molecule `CN(C)CCNC(=O)c1cccc2nc3ccc4ccccc4c3nc12`, the concentration for total growth inhibition (TGI) in [1] was 0.517 µM; in assay [2] it was 1.14 µM; in [3], 0.253 µM; in [4], 0.228 µM; in assay [5], 0.282 µM; in assay [6], 0.494 µM. The TGI in assay [7] was found to be 0.256 µM; in assay [8], 25.6 µM; in assay [9], 0.53 µM; in [10], 1.99 µM.

With `COc1c(OC(C)=O)cc2c(OC(C)=O)c1CC(C)CC(OC)C(O)C(C)/C=C(\C)C(OC(N)=O)C(OC)/C=C\C=C(/C)C(=O)N2` (stereo not given), the TGI in assay [1] is over 100 µM; in assay [2], over 100 µM; in assay [3], over 100 µM; in [4] it was over 100 µM; in assay [5], over 100 µM; in assay [6] it was over 67.5 µM. The TGI in [7] was over 100 µM; in assay [8], over 62.6 µM; in assay [9], over 100 µM; in [10], over 100 µM.

With `CC(=O)NNc1nc(C)c(C(=O)NNC(=O)C(=O)Nc2ccc(C)c(C)c2)s1`, the TGI in assay [1], in assay [2], in [3], in assay [4], in assay [5] and in assay [6] was over 100 µM in each case. Besides, the TGI in [7] was over 100 µM; in assay [8], over 100 µM; in assay [9], 81.1 µM; in assay [10], over 100 µM.

For the molecule `O=C(CC(=O)N1N=C(n2ccc3ccccc32)CC1c1ccccc1)Nc1cccc(Cl)c1` (stereo not given), the TGI in assay [1], in assay [2], in assay [3], in assay [4], in [5] and in [6] was over 100 µM throughout. Besides, the TGI in assay [7], in [8], in assay [9] and in assay [10] was over 100 µM each time.

As for `Nc1nc(-c2ccccc2)c(-c2ccccc2)c(-c2nc(N)nc(-c3ccccc3)c2-c2ccccc2)n1`, the TGI in assay [1], in assay [2], in assay [3], in assay [4], in assay [5] and in assay [6] was over 100 µM in each case. In addition, the TGI in assay [7], in assay [8], in assay [9] and in [10] was over 100 µM each time.

Consider `CCSC1(SCC)CCN(C=NC(C)(C)C)C1`, for which the concentration for total growth inhibition (TGI) in assay [1], in [2], in assay [3], in assay [4], in assay [5] and in assay [6] was over 100 µM throughout. Also, the concentration for total growth inhibition (TGI) in assay [7], in assay [8], in assay [9] and in assay [10] was over 100 µM throughout.

Regarding `O=C1NC(=NCc2cccs2)SC1Cc1ccc2ncccc2c1` (stereo not given), the GI50 in [1] was 7.49 µM; in assay [2], 11 µM; in assay [3] it was 18.5 µM; in assay [4] it was 19.2 µM; in assay [5] it was over 25 µM; in assay [6] it was 11.8 µM. Moreover, the GI50 was 15 µM in [7], 17.3 µM in [8], 13 µM in assay [9] and over 24.1 µM in [10]. The TGI in [1], in [2], in [3], in assay [4], in [5] and in [6] was over 25 µM each time. The total growth inhibition concentration (TGI) in [7], in assay [8], in assay [9] and in assay [10] was over 25 µM throughout.

As to `COC(=O)CCC(NC(=S)N/N=C(\C)c1ccccn1)C(=O)OC` (stereo not given), the TGI in [1] was over 100 µM; in assay [2], over 100 µM; in [3], over 100 µM; in [4], over 100 µM; in assay [5], over 100 µM; in [6] it was 53.1 µM. Further, the TGI in assay [7], in assay [8], in assay [9] and in [10] was over 100 µM each time.

Regarding `O=C(c1cc(=O)c2ccc(O)cc2o1)c1ccc(Cl)cc1Cl`, the TGI is over 100 µM in assay [1]; 71.3 µM in assay [2]; over 100 µM in assay [3]; over 59.1 µM in assay [4]; 58.8 µM in assay [5]; over 100 µM in assay [6]. Further, the total growth inhibition concentration (TGI) in assay [7] was over 100 µM; in [8] it was over 35.5 µM; in assay [9], over 58.9 µM; in [10], over 64.4 µM.

`CCOC(=O)C1=C(Nc2ccccc2)OC/C1=N\NC(=O)Cc1ccccc1`: the total growth inhibition concentration (TGI) in assay [1], in assay [2], in [3], in assay [4], in [5] and in assay [6] was over 50 µM in each case. In addition, the TGI in assay [7], in [8], in [9] and in assay [10] was over 50 µM throughout.

`CCOc1ccccc1NC(=O)C(=O)CC(=O)C1=C(C)Nc2ccccc2S1`: the TGI was over 100 µM in assay [1]; over 100 µM in assay [2]; over 100 µM in assay [3]; over 100 µM in assay [4]; over 100 µM in assay [5]; over 36.2 µM in assay [6]. The TGI was over 100 µM in [7], over 76.4 µM in [8], over 100 µM in assay [9] and over 100 µM in assay [10].
